Measurements published in US8916681B2, “Compound, use and method” (Medical Research Council, priority 2007, dated 2014).
Values joined by “and” are separate entries in the source; they are usually repeats but may differ in a detail not shown here. Identical values can stand only once. “Also recorded” adds a separate entry of the source. Like-named read-outs stand apart in the source and are kept apart here. Non-standard residues stand in square brackets, D forms with d. Residues, ends and D or L forms follow the SMILES beside them.

Assays:
[1] = Fetal weight after kisspeptin treatment (FIG. 6); type: in vivo
[2] = system: CHO cells stably expressing human gpr-54; assay: Cell migration (wound healing) assay in CHO cells; type: cell-based, Chinese hamster
Description: Human Umbilical Vein Endothelial Cells (HUVECs) isolated from neonatal umbilical cord were used as they endogenously express gpr-54, which is though to be involved in cell migration in the placenta. Chinese hamster ovary (CHO) cells which stably express the human gpr-54 receptor were used as a model cell line for wound healing assays. […] Complete media was added along with 1 nM Kisspeptin-10 for HUVECs and 100 nM Kisspeptin-10 for CHO cells, the optimal concentrations to inhibit cell migration (wound healing) in each cell type, in the presence and absence of antagonist 233, 234, 273 and 276 for HUVECs and 234 for CHOs. […] Cells were photographed on the axiovert 2000 at 20× magnification in phase contrast (Hori et al., 2001. Metastin suppresses the motility and growth of CHO cells transfected with its receptor. Biochem Biophys Res Commun 286, 958-963; Stafford et al., 2002, Identification and characterization of mouse metastasis-suppressor KiSS1 and its G-protein-coupled receptor. Cancer Res 62, 5399-5404).

GPR54 = GPR54 (Homo sapiens, UniProt Q969F8); assay: Whole cell receptor binding assay, competition with 125I-labelled kisspeptin-10; design: expressed in transfected cells; host or cells: CHO, stably transfected; conditions: competition with I125-labelled kisspeptin-10
Chain of GPR54 (Q969F8 whole entry): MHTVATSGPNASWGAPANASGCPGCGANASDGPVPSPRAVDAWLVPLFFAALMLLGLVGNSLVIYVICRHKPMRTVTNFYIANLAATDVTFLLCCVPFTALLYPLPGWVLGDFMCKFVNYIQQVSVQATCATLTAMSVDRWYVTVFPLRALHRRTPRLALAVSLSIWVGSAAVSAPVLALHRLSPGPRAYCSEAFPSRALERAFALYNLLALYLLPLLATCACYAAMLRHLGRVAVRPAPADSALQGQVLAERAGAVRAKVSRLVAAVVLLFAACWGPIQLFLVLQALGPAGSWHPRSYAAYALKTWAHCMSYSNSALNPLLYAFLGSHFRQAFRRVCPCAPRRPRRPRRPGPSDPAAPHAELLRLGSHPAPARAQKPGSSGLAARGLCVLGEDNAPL
Description: Whole Cell Receptor Binding Assay—Kisspeptin-10 and analogues were prepared at 1:1000 dilutions in HEPES modified Dulbecco's modified Eagle's medium (DMEM) supplemented with ^125I-labelled Kisspeptin to produce 100,000 counts per minute (cpm). Cell monolayers were placed on ice and exposed to 0.5 mls peptide (10 pM-1 uM); the cells were then incubated at 4° C. for 4 hr. After 4 hrs, cells were washed twice with ice cold Dulbecco's phosphate buffered saline (DPBS; with Calcium and Magnesium) and then 0.5 mls 0.1M Sodium Hydroxide (NaOH) were added to cells for 20 minutes, shaking to lyse cells. Lysates were transferred to plastic tubes and bound radioactivity counted on the gamma counter for 60 seconds.

[3] = system: serum LH and testosterone; assay: Kisspeptin-10 stimulated LH and testosterone in intact male rats, icv injections; type: in vivo, rat; conditions: for LH secretory response to kisspeptin-10 (AUC): 1 nmol icv with 100 pmol kisspeptin-10, 120-min period after co-injection; for testosterone levels vs kisspeptin-10 alone: 60 min after combined injection with kisspeptin-10
Description: Adult male rats (BW: 280-310 g) bred in the vivarium of the University of Córdoba were used. The animals were maintained under constant conditions of light (14 h of light, from 0700 h) and temperature (22 C), and, before cannula implantation, were kept in groups of four rats per cage with free access to pelleted food and tap water. Experimental procedures were approved by the Córdoba University Ethical Committee for animal experimentation and were conducted in accordance with the European Union normative for care and use of experimental animals.
The animals were implanted with icy cannulae under light ether anaesthesia and caged individually thereafter. To allow delivery of compounds into the lateral cerebral ventricle, the cannulae were lowered to a depth of 4 mm beneath the surface of the skull; the insert point was 1 mm posterior and 1.2 mm lateral to bregma. Functional tests were conducted at least 24-48 h after cannula implantation.
Pharmacological tests in intact males involved 5 μl injections at 60 min intervals (icy) of 1 nmol doses of the peptide 234. The last injection was accompanied by the injection of an effective (but sub-maximal) dose of 100 pmol kisspeptin-10 (Phoenix Pharmaceuticals Ltd). Animals injected with vehicle (physiological saline) served as controls. Blood samples (250 μL) were taken by jugular venipuncture at 15- and 60-min following each icy injection. In addition, blood samples were taken immediately before initiation of the experiment (time: 0-min) and at 120-min after last injection (time: 240-min). Experimental procedures and kisspeptin doses were selected on the basis of previous studies (16, 34, 48). For each time-point, 10-12 samples were taken per group.
Serum LH levels were measured in a volume of 50 μl using a double-antibody method and radioimmunoassay kits supplied by the NIH (Dr. AF Parlow, NIDDK). Rat LH-I-10 was labeled with ^125I using Iodo-Gen precoated tubes, following the instructions of the manufacturer (Pierce), and hormone concentrations were expressed using reference preparation LH-RP-3 as standard. Intra- and inter-assay coefficients of variation were below 8 and 10%, respectively. The sensitivity of the assay was 5 pg/tube. In addition, serum testosterone (T) measurements were selectively conducted in blood samples taken 60-min after co-administration of kp-10 and peptide 234 (Time: 180-min). To this end, a commercial kit from MP Biomedicals was used, following the instructions of the manufacturer. The sensitivity of the assay was 0.1 ng/tube and the intra-assay coefficient of variation was 4.5%. For each hormone, all samples were measured in the same assay. Accuracy of hormone determinations was confirmed by assessment of rat serum samples of known hormone concentrations used as external controls.
Hormonal determinations were conducted in duplicate, with a minimal total number of 10 samples per group. When appropriate, in addition to individual time-point measurements, integrated LH secretory responses were calculated as the area under the curve (AUC), following the trapezoidal rule. Hormonal data are presented as mean±SEM. Results were analyzed for statistically significant differences using Student t-test or ANOVA followed by Student-Newman-Keuls multiple range test (SigmaStat 2.0). P≦0.05 was considered significant.

GnRH receptors = molecular target: T1, GnRH receptors (Homo sapiens, UniProt P30968); assay: Binding to GnRH receptors (data not shown)
T1 sequence (P30968 1-328): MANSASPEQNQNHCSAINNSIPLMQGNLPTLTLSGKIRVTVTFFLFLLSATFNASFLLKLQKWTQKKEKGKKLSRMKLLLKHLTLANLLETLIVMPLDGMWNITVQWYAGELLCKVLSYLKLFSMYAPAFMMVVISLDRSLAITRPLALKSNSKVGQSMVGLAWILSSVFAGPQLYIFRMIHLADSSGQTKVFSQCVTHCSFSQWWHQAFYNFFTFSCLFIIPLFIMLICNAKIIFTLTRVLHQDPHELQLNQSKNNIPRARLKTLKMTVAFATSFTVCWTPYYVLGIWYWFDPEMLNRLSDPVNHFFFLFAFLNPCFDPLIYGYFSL

serum LH = assay: Serum LH in orchidectomized (castrated) male rats, icv injections; type: in vivo, rat; conditions: 1 nmol at 0, 60 and 120 min; significant at 240 min
Description: In addition, repeated icy injection of the peptide 234 was also conducted in orchidectomized (ORX) rats. The animals were subjected to bilateral ORX via the scrotal route, and after 1-wk after surgery were subjected to cannula implantation as described above. The test involved three intracerebral injections of the antagonist (1 nmol; at 0-, 60- and 120-min of the procedure) and blood sampling by jugular venipuncture in basal conditions (0-min) and 15-min after each icy injection. Additional blood samples were obtained at 180- and 240-min after central administration of peptide 234. For each time-point, 10-12 samples were taken per group.
Serum LH levels were measured in a volume of 50 μl using a double-antibody method and radioimmunoassay kits supplied by the NIH (Dr. AF Parlow, NIDDK). […] For each hormone, all samples were measured in the same assay. […]
Hormonal determinations were conducted in duplicate, with a minimal total number of 10 samples per group. When appropriate, in addition to individual time-point measurements, integrated LH secretory responses were calculated as the area under the curve (AUC), following the trapezoidal rule. […] Results were analyzed for statistically significant differences using Student t-test or ANOVA followed by Student-Newman-Keuls multiple range test (SigmaStat 2.0). […]

LH receptors = LH receptors (Homo sapiens, UniProt P22888); assay: Binding to LH receptors (data not shown)
Chain of LH receptors (P22888 27-699): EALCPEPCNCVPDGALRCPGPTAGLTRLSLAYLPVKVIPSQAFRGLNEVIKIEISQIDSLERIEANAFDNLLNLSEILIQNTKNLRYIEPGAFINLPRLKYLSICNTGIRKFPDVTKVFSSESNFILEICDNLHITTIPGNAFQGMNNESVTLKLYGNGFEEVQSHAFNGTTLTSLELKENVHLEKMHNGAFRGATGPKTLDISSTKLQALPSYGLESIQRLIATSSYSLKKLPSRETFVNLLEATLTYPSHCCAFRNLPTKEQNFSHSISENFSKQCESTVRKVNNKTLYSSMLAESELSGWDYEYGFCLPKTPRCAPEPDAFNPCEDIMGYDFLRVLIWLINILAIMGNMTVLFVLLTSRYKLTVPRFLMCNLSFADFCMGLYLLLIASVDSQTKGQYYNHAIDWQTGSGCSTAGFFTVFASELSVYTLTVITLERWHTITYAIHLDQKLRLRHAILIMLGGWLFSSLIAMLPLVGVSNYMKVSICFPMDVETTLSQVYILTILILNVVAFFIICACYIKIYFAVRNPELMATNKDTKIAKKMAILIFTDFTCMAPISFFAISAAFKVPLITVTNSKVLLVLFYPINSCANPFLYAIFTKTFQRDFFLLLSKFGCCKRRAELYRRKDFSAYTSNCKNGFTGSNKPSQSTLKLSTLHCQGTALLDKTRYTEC

| Compound | fetal weight [1] | inhibition of cell migration ([2]; 100 nM) | Kd (GPR54; binding affinity) | serum LH levels ([3]; central injection to vehicle-treated animals at 120 min) | binding to GnRH receptors (GnRH receptors) | serum LH levels in castrated males (serum LH) | effect on inhibition of cell migration by 100 nM Kisspeptin ([2]; 22 hrs) | Kd (GPR54; read-out: binding affinity) | LH secretory response to kisspeptin-10 (AUC) [3] | LH secretory response to kisspeptin-10 (AUC) ([3]; listed as peptide 234) | basal LH levels ([3]; 1 nmol icv, 15, 60, 75 and 120 min after injection) | testosterone levels vs kisspeptin-10 alone [3] | testosterone levels vs kisspeptin-10 alone ([3]; listed as peptide 234) | binding to LH receptors (LH receptors) |
| --- | --- | --- | --- | --- | --- | --- | --- | --- | --- | --- | --- | --- | --- | --- |
| CC(C)C[C@H](NC(=O)CNC(=O)[C@H](Cc1ccccc1)NC(=O)[C@H](CO)NC(=O)[C@H](CC(N)=O)NC(=O)[C@H](Cc1c[nH]c2ccccc12)NC(=O)[C@H](CC(N)=O)NC(=O)[C@@H](N)Cc1ccc(O)cc1)C(=O)N[C@@H](CCCNC(=N)N)C(=O)N[C@@H](Cc1ccccc1)C(N)=O [Kiss, reference compound] | decreased | 50% | 2 nM | evoked the expected rise | – | – | – | – | – | – | – | – | – | – |
| CC(=O)N[C@H](C)C(=O)N[C@@H](CC(N)=O)C(=O)N[C@@H](Cc1c[nH]c2ccccc12)C(=O)N[C@@H](CC(N)=O)C(=O)NCC(=O)N[C@@H](Cc1ccccc1)C(=O)NCC(=O)N[C@H](Cc1c[nH]c2ccccc12)C(=O)N[C@@H](CCCNC(=N)N)C(=O)N[C@@H](Cc1ccccc1)C(N)=O [Peptide 234] (Ac-[dA]NWNGFG[dW]RF-NH2) | – | – | – | – | did not bind | inhibited; also recorded: tended to reduce; also recorded: blocked the increase in LH | completely abolishes | 2 nM and 2.7 nM | inhibits; also recorded: blocked | significantly blunted | did not significantly modify | blocked | lower | did not bind |
